Source: ChEMBL document CHEMBL3045775, “Methyl jasmonate-induced suppression of anthracnose rot in tomato fruit” (Crop Prot, 2007)
Active and inactive are the calls of the source. The calls are words filed in the database; no cut-off is given here.

How the values were obtained:
Colletotrichum coccodes [1] = assay: Antifungal activity against Colletotrichum coccodes infected tomato fruit assessed as decrease in fruit cracking at 100% v/v incubated for 7 days post-inoculation relative to control; assay type: functional, organism-based
Colletotrichum coccodes [2] = assay: Antifungal activity against Colletotrichum coccodes assessed as spore germination at 44.8 ul/l incubated for 24 hr post-inoculation (reference value: 100%); assay type: functional
Colletotrichum coccodes [3] = assay: Antifungal activity against Colletotrichum coccodes assessed as colony area at 44.8 ul/l incubated for 7 days post-inoculation (reference value: 9.55 +/- 0.25 cm2); assay type: functional
Colletotrichum coccodes [4] = assay: Antifungal activity against Colletotrichum coccodes infected tomato fruit assessed as suppression in lesion at 41.8 ul/l inoculated on fruit pretreated with compound for 20 min measured after 9 days relative to control; assay type: functional
Colletotrichum coccodes [5] = assay: Antifungal activity against Colletotrichum coccodes infected tomato fruit assessed as spore germination at 44.8 ul/l incubated for 7 days post-inoculation followed by spore inoculation on medium measured after 24 hr (reference value: 96.5 +/- 2.66%); assay type: functional
Colletotrichum coccodes [6] = assay: Antifungal activity against Colletotrichum coccodes infected tomato fruit assessed as lesion area at 44.8 ul/l inoculated on fruit pretreated with compound for 7 days measured after 7 days (reference value: 4.33 +/- 0.6 cm2); assay type: functional
Colletotrichum coccodes [7] = assay: Induction of Colletotrichum coccodes growth infected tomato fruit assessed as fruit cracking at 100% v/v incubated for 7 days post-inoculation relative to control; assay type: organism-based; conditions: in vivo, 168 h
Colletotrichum coccodes [8] = assay: Antifungal activity against Colletotrichum coccodes infected tomato fruit assessed as spore germination at 44.8 ul/l inoculated on fruit pre-treated with compound for 7 days followed by 7 days incubation measured 24 hr post spore-inoculation on medium (reference value: 88.8 +/- 5.19%); assay type: functional
Colletotrichum coccodes [9] = assay: Antifungal activity against Colletotrichum coccodes assessed as spore production at 44.8 ul/l inoculated on medium pretreated with compound for 7 days followed by compound wash-out measured after 9 days (7.7 +/- 4.15 10^5/ml); assay type: functional
Colletotrichum coccodes [10] = assay: Antifungal activity against Colletotrichum coccodes assessed as spore germination at 44.8 ul/l inoculated on medium pretreated with compound for 24 hr followed by compound wash-out measured after 24 hr (100%); assay type: functional
Colletotrichum coccodes [11] = assay: Antifungal activity against Colletotrichum coccodes infected tomato fruit assessed as spore production at 44.8 ul/l inoculated on fruit pre-treated with compound for 7 days measured after 9 days (reference value: 11.2 +/- 4.29 10^5/ml); assay type: functional
Colletotrichum coccodes [12] = assay: Antifungal activity against Colletotrichum coccodes infected tomato fruit assessed as spore production at 44.8 ul/l incubated for 9 days post-inoculation (reference value: 1.6 +/- 0.92 10^5/ml); assay type: functional
Colletotrichum coccodes [13] = assay: Antifungal activity against Colletotrichum coccodes assessed as spore production at 44.8 ul/l incubated for 9 days post-inoculation (reference value: 7.1 +/- 2.44 10^5/ml); assay type: functional
Colletotrichum coccodes [14] = assay: Antifungal activity against Colletotrichum coccodes infected tomato fruit assessed as lesion area at 44.8 ul/l incubated for 7 days post-inoculation (reference value: 1.64 +/- 0.62 cm2); assay type: functional
Colletotrichum coccodes [15] = assay: Antifungal activity against Colletotrichum coccodes infected tomato fruit assessed as suppression in lesion at 41.8 ul/l incubated for 20 min followed by compound wash out measured after 6 days relative to control; assay type: functional, organism-based
Colletotrichum coccodes [16] = assay: Antifungal activity against Colletotrichum coccodes assessed as colony area at 44.8 ul/l inoculated on medium pretreated with compound for 7 days followed by compound wash-out measured after 7 days (5.98 +/- 0.36 cm2); assay type: functional

Compound | Activity (Colletotrichum coccodes [1]) | Activity (Colletotrichum coccodes [2]) [%] | Activity (Colletotrichum coccodes [3]) [cm2] | Activity (Colletotrichum coccodes [4]) [%] | Activity (Colletotrichum coccodes [5]) [%] | Activity (Colletotrichum coccodes [6]) [cm2] | Activity (Colletotrichum coccodes [7]) [%] | Activity (Colletotrichum coccodes [8]) [%] | Activity (Colletotrichum coccodes [9]) [×10⁵ /ml] | Activity (Colletotrichum coccodes [10]) [%] | Activity (Colletotrichum coccodes [11]) [×10⁵ /ml] | Activity (Colletotrichum coccodes [12]) [×10⁵ /ml] | Activity (Colletotrichum coccodes [13]) [×10⁵ /ml] | Activity (Colletotrichum coccodes [14]) [cm2] | Activity (Colletotrichum coccodes [15]) | Activity (Colletotrichum coccodes [16]) [cm2]
Cl | Active | – | – | – | – | – | – | – | – | – | – | – | – | – | – | –
CC/C=C\CC1C(=O)CCC1CC(=O)OC (configuration not stated) [METHYL JASMONATE] | Active | 99.5 | 8.18 | 20 | 51.6 | 4.74 | 23 | 55.2 | 7.6 | 99 | 7.7 | 1 | 6.9 | 2.79 | inactive | 4.55
